Structures are written as SMILES.

From patent publication US9828342B2, “Isatin derivatives, pharmaceutical compositions thereof, and methods of use thereof” (CITY OF HOPE, priority 2012, dated 2017) come the findings set out here.

For assay [1], the system named is DU145 prostate cancer cells. The assay can be described thus: MTS cell viability assay in DU145 prostate cancer cells. The class given is cell-based. The note with it: Homo sapiens, DU-145, 48 h, DU145, 48 hr, 0.05 to 10 μM in 1% DMSO, MTS (Table 2a); read-out: DU145 IC50. How it is done: (§1) Then, MTS assays for cell viability were carried out to determine the IC50 values. Four samples were tested for each isatin derivative at each concentration in each cell line, and the averaged data were shown in Table 2a and FIGS. 1˜4.
(§2) IC50 of values of isatin derivatives Compounds 101˜123 were determined in cancer cell lines DU145 and A2058 respectively.
(Tetrazolium assays rely on reduction of a dye to a coloured formazan, in cell work by metabolically active cells.)

In assay [2] the test system is A2058 human melanoma cells. The assay can be described thus: MTS cell viability assay in A2058 melanoma cells. The class given is cell-based. The note with it: Homo sapiens, A2058, 48 h, 0.05 to 10 μM in 1% DMSO, MTS (Table 2a); read-out: A2058 IC50. On the procedure: as §1, §2
The subject of assay [3] is PANC-1 pancreatic cancer cells. The assay can be described thus: MTS cell viability assay in PANC-1 pancreatic cancer cells. The class given is cell-based. The note with it: Homo sapiens, PANC-1, 48 hr, 1% DMSO. On the procedure: (§3) Each type of cells (5,000 or 10,000 cells/well) were treated with different concentration (0.1 μM to 10 μM in 1% DMSO of Compound 2 or Compound 22 respectively for 48 hr). Then, MTS assays for cell viability were carried out to determine the IC50 values. Four samples were tested for each test compound at each concentration for each type of cells, and the averaged data were shown in Table 3 and FIG. 5.

The subject of assay [4] is PaCa2 pancreatic cancer cells. The assay can be described thus: MTS cell viability assay in PaCa2 pancreatic cancer cells. The note with it: PaCa-2, PaCa2, 48 hr, 1% DMSO. The class given is cell-based. On the procedure: as §3
Assay [5] relates to OVCAR5 ovarian cancer cells. The assay can be described thus: MTS cell viability assay in OVCAR5 ovarian cancer cells. The class given is cell-based. Particulars: Homo sapiens, OVCAR-5, OVCAR5, 48 hr, 1% DMSO. How it is done:
(§4) Each type of cells (5,000 or 10,000 cells/well) were treated with different concentration (0.1 μM to 20 μM in 1% DMSO of cisplatin or Compound 2, 9, 12, 16 or 22 respectively for 48 hr). Then, MTS assays for cell viability were carried out to determine the IC50 values. Four samples were tested for each test compound at each concentration for each type of cells, and the averaged data were shown in Table 4 and FIGS. 6-8.

The test system of assay [6] is A2780 cisplatin-resistant ovarian cancer cells. The assay can be described thus: MTS cell viability assay in A2780 cisplatin-resistant ovarian cancer cells. The class given is cell-based. The note with it: Homo sapiens, A2780, 48 h, A2780 cisplatin-resistant, 48 hr, 1% DMSO, MTS. How it is done:
as §4

Assay [7] relates to OCI-Ly3 non-Hodgkins B cell lymphoma cells. Put plainly: MTS cell viability assay in OCI-Ly3 lymphoma cells. The class given is cell-based. Particulars: Homo sapiens, OCI-Ly3, 48 hr, 1% DMSO. On the procedure:
(§5) Each type of cells (5,000 or 10,000 cells/well) were treated with different concentration (0.01 μM to 5 μM in 1% DMSO of the test compound respectively for 48 hr). Then, MTS assays for cell viability were carried out to determine the IC50 values. Four samples were tested for each test compound at each concentration for each type of cells, and the averaged data were shown in Table 5 and FIGS. 10˜12.

Assay [8] deals with Daudi B Cell Burkitt lymphoma cells. The assay can be described thus: MTS cell viability assay in Daudi lymphoma cells. The class given is cell-based. Particulars: Homo sapiens, 48 hr, 1% DMSO. How it is done: as §5
Assay [9] deals with Anaplastic Large T cell lymphoma cells. The assay can be described thus: MTS cell viability assay in anaplastic large T cell lymphoma cells. The note with it: 48 hr, 1% DMSO. The class given is cell-based. How it is done: as §5
The test system of another assay is Cyclin B1. The assay can be described thus: Immunoblot of Cyclin B1 content in DU145 and A2058 cells. The class given is cell-based. The note with it: DU145 or A2058 cells, 0.1, 1 or 2.5 μM, 24 hr, higher dosage. On the procedure: (§6) DU145 prostate cancer cells or A2058 melanoma cells were incubated with Compound 22 at a concentration of 0.1, 1, or 2.5 μM or DMSO for 24 hr. Cells were lysed using Laemmli buffer. The differences in the content of Cyclin B1 and phosphorylation of Cdc25C were determined by immunoblot analysis.
In general terms: Immunoblotting shows a protein as a band on a membrane.

For another assay, the system named is Cdc25C. Put plainly: Immunoblot of Cdc25C phosphorylation in DU145 and A2058 cells. The note with it: DU145 or A2058 cells, 0.1, 1 or 2.5 μM, 24 hr, higher dosage. The class given is cell-based. How it is done:
as §6

Another assay concerns tubulin. The assay can be described thus: In vitro tubulin polymerization assay (HTS-Tubulin polymerization assay kit). The class given is biochemical. Particulars: 1 μM, 4 mg/mL tubulin, 1 hr, 37° C. On the procedure:
To determine whether Compound 22 inhibits tubulin formation in vitro, HTS-Tubulin polymerization assay kits (cytoskeleton) were used. The assay procedure was performed using the manufacturer's protocol. Briefly, each 4 mg tubulin was resuspended with 1 mL of the cold G-PEM (80 mM PIPES pH6.9, 2 mM MgCl2, 0.5 mM EGTA) buffer to make the final concentration of 4 mg/mL. The reaction volume was 100 μL. Tubulin polymerization was monitored with the kinetic mode at […] for 1 hr at 37° C. […] Together, compound 22 is a promising lead compound to develop new anticancer drugs as new class of microtubule inhibitors.

The term IC50 denotes the midpoint of a concentration-inhibition curve. As to `O=C1C(=O)N(C/C=C/c2ccccc2)c2ccc(-c3cccnc3)cc21` [Compound 22], the IC50 in assay [1] worked out at 300 nM; in assay [2], 210 nM; in assay [3], 100 nM; in [4] it was 96 nM; in assay [5] it was 340 nM; in [6], 440 nM. The IC50 in assay [7] came to 39 nM; in assay [8] it was 38 nM; in [9] it was 130 nM. In the assay with Cyclin B1, the “content of Cyclin B1” value is on record as “increased amount of Cyclin B1”. In addition, in the assay on Cdc25C, the “phosphorylation of Cdc25C” value is recorded as “less phosphorylation of Cdc25C”. In addition, in the assay on tubulin, the “tubulin polymerization in vitro” value was “substantially inhibited tubulin polymerization”.
